Experimental data from US8802597B2, “Herbicidal pyrimidines” (E I du Pont de Nemours and Company, priority 2003, dated 2014).

How the values were obtained:
Assay type in all cases: in vivo
[1] = system: purple redstem (Ammannia coccinea); assay: Test E flooded paddy water application; details: Flood, 21 days, scale 0 to 100 (0 no effect, 100 complete control); for Plant response rating, Redstem: 16 g ai/ha
Outline: (§1)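 Greenhouse pots of Tama silt loam with weeds and rice at 2.0–2.5-leaf stage, flooded to 3 cm; compounds applied directly into paddy water, depth maintained. Visual rating versus untreated controls after 21 days, 0 (no effect) to 100 (complete control); 29.5/26.7 °C, 16-h photoperiod.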

[2] = system: bearded (brdd.) sprangletop (Leptochloa fusca ssp. fascicularis); assay: Test E flooded paddy water application; details: Flood, 21 days, scale 0 to 100 (0 no effect, 100 complete control); for Plant response rating, Sprangletop, Brdd.: 16 g ai/ha
Outline: as §1

[3] = system: transplanted rice seedlings (Oryza sativa cv. ‘Japonica-M202’); assay: Test E flooded paddy water application; details: Flood, 21 days, scale 0 to 100 (0 no effect, 100 complete control); for Plant response rating, Rice, Transplanted: 16 g ai/ha
Outline: as §1

[4] = system: barnyardgrass (Echinochloa crus-galli); assay: Test E flooded paddy water application; details: Flood, 21 days, scale 0 to 100 (0 no effect, 100 complete control); for Plant response rating, Barnyardgrass: 16 g ai/ha
Outline: as §1

[5] = system: smallflower umbrella sedge (Cyperus difformis); assay: Test E flooded paddy water application; details: Flood, 21 days, scale 0 to 100 (0 no effect, 100 complete control); for Plant response rating, Sedge, Umbrella: 16 g ai/ha
Outline: as §1

[6] = system: junglerice (Echinochloa colona); assay: Test E flooded paddy water application; details: Flood, 21 days, scale 0 to 100 (0 no effect, 100 complete control); for Plant response rating, Junglerice: 16 g ai/ha
Outline: as §1

[7] = system: water seeded rice seedlings (Oryza sativa cv. ‘Japonica-M202’); assay: Test E flooded paddy water application; details: Flood, 21 days, scale 0 to 100 (0 no effect, 100 complete control); for Plant response rating, Rice, Water Seeded: 16 g ai/ha
Outline: as §1

[8] = system: rice flatsedge (Cyperus iria); assay: Test E flooded paddy water application; details: Flood, 21 days, scale 0 to 100 (0 no effect, 100 complete control); for Plant response rating, Flatsedge, Rice: 16 g ai/ha
Outline: as §1

[9] = system: late watergrass (Echinochloa oryzicola); assay: Test E flooded paddy water application; details: Flood, 21 days, scale 0 to 100 (0 no effect, 100 complete control); for Plant response rating, Watergrass, Late: 16 g ai/ha
Outline: as §1

[10] = system: ducksalad (Heteranthera limosa); assay: Test E flooded paddy water application; details: Flood, 21 days, scale 0 to 100 (0 no effect, 100 complete control); for Plant response rating, Ducksalad: 16 g ai/ha
Outline: as §1

[11] = system: early watergrass (Echinochloa oryzoides); assay: Test E flooded paddy water application; details: Flood, 21 days, scale 0 to 100 (0 no effect, 100 complete control); for Plant response rating, Watergrass, Early: 16 g ai/ha
Outline: as §1

[12] = system: redroot pigweed (Amaranthus retroflexus); assay: Test A pre/postemergence
Outline: (§2)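 Pre/post greenhouse screen; loam/sand soil; solvent + surfactant formulation; pre = directed soil spray at planting, post = 1–2 leaf plants, 2–10 cm; ~10 d; visual 0–100 rating vs untreated.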

[13] = system: velvetleaf (Abutilon theophrasti); assay: Test A pre/postemergence
Outline: as §2

[14] = system: barnyardgrass (Echinochloa crus-galli); assay: Test A pre/postemergence
Outline: as §2

[15] = system: crabgrass (Digitaria sanguinalis); assay: Test A pre/postemergence
Outline: as §2

[16] = system: morningglory (Ipomoea spp.); assay: Test A pre/postemergence
Outline: as §2

[17] = system: giant foxtail (Setaria faberi); assay: Test A pre/postemergence
Outline: as §2

[18] = Postemergence, 125 g ai/ha, 0 to 100 scale (0 no effect, 100 complete control)
[19] = Postemergence, 500 g ai/ha, 0 to 100 scale (0 no effect, 100 complete control)
[20] = Preemergence, 125 g ai/ha, 0 to 100 scale where 0 is no effect and 100 is complete control, approximately ten days
[21] = Preemergence, 500 g ai/ha, 0 to 100 scale where 0 is no effect and 100 is complete control, approximately ten days

## COC(=O)c1nc(-c2ccc(C)cc2)nc(N)c1Cl [Compound 84]
[1]; 32 g ai/ha
  Redstem plant response rating: 20
[1]; 64 g ai/ha
  Redstem plant response rating: 20
[1]; 125 g ai/ha
  Redstem plant response rating: 70
[1]; 250 g ai/ha
  Redstem plant response rating: 100
[1]
  Plant response rating, Redstem: 0
[2]; 32 g ai/ha
  Sprangletop, Brdd. plant response rating: 0
[2]; 64 g ai/ha
  Sprangletop, Brdd. plant response rating: 0
[2]; 125 g ai/ha
  Sprangletop, Brdd. plant response rating: 0
[2]; 250 g ai/ha
  Sprangletop, Brdd. plant response rating: 40
[2]
  Plant response rating, Sprangletop, Brdd.: 0
[3]; 32 g ai/ha
  Rice, Transplanted plant response rating: 0
[3]; 64 g ai/ha
  Rice, Transplanted plant response rating: 0
[3]; 125 g ai/ha
  Rice, Transplanted plant response rating: 0
[3]; 250 g ai/ha
  Rice, Transplanted plant response rating: 20
[3]
  Plant response rating, Rice, Transplanted: 0
[4]; 32 g ai/ha
  Barnyardgrass plant response rating: 0
[4]; 64 g ai/ha
  Barnyardgrass plant response rating: 0
[4]; 125 g ai/ha
  Barnyardgrass plant response rating: 20
[4]; 250 g ai/ha
  Barnyardgrass plant response rating: 85
[4]
  Plant response rating, Barnyardgrass: 0
[5]; 32 g ai/ha
  Sedge, Umbrella plant response rating: 80
[5]; 64 g ai/ha
  Sedge, Umbrella plant response rating: 80
[5]; 125 g ai/ha
  Sedge, Umbrella plant response rating: 90
[5]; 250 g ai/ha
  Sedge, Umbrella plant response rating: 100
[5]
  Plant response rating, Sedge, Umbrella: 70
[6]; 32 g ai/ha
  Junglerice plant response rating: 0
[6]; 64 g ai/ha
  Junglerice plant response rating: 0
[6]; 125 g ai/ha
  Junglerice plant response rating: 50
[6]; 250 g ai/ha
  Junglerice plant response rating: 50
[6]
  Plant response rating, Junglerice: 0
[7]; 32 g ai/ha
  Rice, Water Seeded plant response rating: 0
[7]; 64 g ai/ha
  Rice, Water Seeded plant response rating: 0
[7]; 125 g ai/ha
  Rice, Water Seeded plant response rating: 0
[7]; 250 g ai/ha
  Rice, Water Seeded plant response rating: 30
[7]
  Plant response rating, Rice, Water Seeded: 0
[8]; 32 g ai/ha
  Flatsedge, Rice plant response rating: 35
[8]; 64 g ai/ha
  Flatsedge, Rice plant response rating: 60
[8]; 125 g ai/ha
  Flatsedge, Rice plant response rating: 60
[8]; 250 g ai/ha
  Flatsedge, Rice plant response rating: 80
[8]
  Plant response rating, Flatsedge, Rice: 25
[9]; 32 g ai/ha
  Watergrass, Late plant response rating: 0
[9]; 64 g ai/ha
  Watergrass, Late plant response rating: 0
[9]; 125 g ai/ha
  Watergrass, Late plant response rating: 0
[9]; 250 g ai/ha
  Watergrass, Late plant response rating: 20
[9]
  Plant response rating, Watergrass, Late: 0
[10]; 32 g ai/ha
  Ducksalad plant response rating: 100
[10]; 64 g ai/ha
  Ducksalad plant response rating: 100
[10]; 125 g ai/ha
  Ducksalad plant response rating: 100
[10]; 250 g ai/ha
  Ducksalad plant response rating: 100
[10]
  Plant response rating, Ducksalad: 100
[11]; 32 g ai/ha
  Watergrass, Early plant response rating: 0
[11]; 64 g ai/ha
  Watergrass, Early plant response rating: 10
[11]; 125 g ai/ha
  Watergrass, Early plant response rating: 20
[11]; 250 g ai/ha
  Watergrass, Early plant response rating: 30
[11]
  Plant response rating, Watergrass, Early: 0
[12]; [18]
  Plant response rating, Pigweed: 60
[12]; [19]
  Plant response rating, Pigweed: 65
[12]; [20]
  Plant response rating, Pigweed: 0
[12]; [21]
  Plant response rating, Pigweed: 80
[13]; [18]
  Plant response rating, Velvetleaf: 75
[13]; [19]
  Plant response rating, Velvetleaf: 90
[13]; [20]
  Plant response rating, Velvetleaf: 15
[13]; [21]
  Plant response rating, Velvetleaf: 70
[14]; [18]
  Plant response rating, Barnyardgrass: 55
[14]; [19]
  Plant response rating, Barnyardgrass: 80
[14]; [20]
  Plant response rating, Barnyardgrass: 0
[14]; [21]
  Plant response rating, Barnyardgrass: 25
[15]; [18]
  Plant response rating, Crabgrass: 0
[15]; [19]
  Plant response rating, Crabgrass: 10
[15]; [20]
  Plant response rating, Crabgrass: 0
[15]; [21]
  Plant response rating, Crabgrass: 15
[16]; [18]
  Plant response rating, Morningglory: 5
[16]; [19]
  Plant response rating, Morningglory: 20
[16]; [20]
  Plant response rating, Morningglory: 0
[16]; [21]
  Plant response rating, Morningglory: 0
[17]; [18]
  Plant response rating, Foxtail, Giant: 0
[17]; [19]
  Plant response rating, Foxtail, Giant: 20
[17]; [20]
  Plant response rating, Foxtail, Giant: 0
[17]; [21]
  Plant response rating, Foxtail, Giant: 20

## CCOC(=O)c1nc(-c2ccc(OC)cc2)nc(N)c1Cl [Compound 98]
[1]; 32 g ai/ha
  Redstem plant response rating: 0
[1]; 64 g ai/ha
  Redstem plant response rating: 0
[1]; 125 g ai/ha
  Redstem plant response rating: 40
[1]; 250 g ai/ha
  Redstem plant response rating: 40
[1]
  Plant response rating, Redstem: 0
[2]; 32 g ai/ha
  Sprangletop, Brdd. plant response rating: 0
[2]; 64 g ai/ha
  Sprangletop, Brdd. plant response rating: 0
[2]; 125 g ai/ha
  Sprangletop, Brdd. plant response rating: 0
[2]; 250 g ai/ha
  Sprangletop, Brdd. plant response rating: 0
[2]
  Plant response rating, Sprangletop, Brdd.: 0
[3]; 32 g ai/ha
  Rice, Transplanted plant response rating: 0
[3]; 64 g ai/ha
  Rice, Transplanted plant response rating: 0
[3]; 125 g ai/ha
  Rice, Transplanted plant response rating: 0
[3]; 250 g ai/ha
  Rice, Transplanted plant response rating: 0
[3]
  Plant response rating, Rice, Transplanted: 0
[4]; 32 g ai/ha
  Barnyardgrass plant response rating: 0
[4]; 64 g ai/ha
  Barnyardgrass plant response rating: 0
[4]; 125 g ai/ha
  Barnyardgrass plant response rating: 0
[4]; 250 g ai/ha
  Barnyardgrass plant response rating: 0
[4]
  Plant response rating, Barnyardgrass: 0
[5]; 32 g ai/ha
  Sedge, Umbrella plant response rating: 60
[5]; 64 g ai/ha
  Sedge, Umbrella plant response rating: 60
[5]; 125 g ai/ha
  Sedge, Umbrella plant response rating: 60
[5]; 250 g ai/ha
  Sedge, Umbrella plant response rating: 60
[5]
  Plant response rating, Sedge, Umbrella: 60
[6]; 32 g ai/ha
  Junglerice plant response rating: 0
[6]; 64 g ai/ha
  Junglerice plant response rating: 0
[6]; 125 g ai/ha
  Junglerice plant response rating: 0
[6]; 250 g ai/ha
  Junglerice plant response rating: 0
[6]
  Plant response rating, Junglerice: 0
[7]; 32 g ai/ha
  Rice, Water Seeded plant response rating: 0
[7]; 64 g ai/ha
  Rice, Water Seeded plant response rating: 0
[7]; 125 g ai/ha
  Rice, Water Seeded plant response rating: 0
[7]; 250 g ai/ha
  Rice, Water Seeded plant response rating: 0
[7]
  Plant response rating, Rice, Water Seeded: 0
[8]; 32 g ai/ha
  Flatsedge, Rice plant response rating: 80
[8]; 64 g ai/ha
  Flatsedge, Rice plant response rating: 100
[8]; 125 g ai/ha
  Flatsedge, Rice plant response rating: 100
[8]; 250 g ai/ha
  Flatsedge, Rice plant response rating: 100
[8]
  Plant response rating, Flatsedge, Rice: 80
[9]; 32 g ai/ha
  Watergrass, Late plant response rating: 0
[9]; 64 g ai/ha
  Watergrass, Late plant response rating: 0
[9]; 125 g ai/ha
  Watergrass, Late plant response rating: 0
[9]; 250 g ai/ha
  Watergrass, Late plant response rating: 0
[9]
  Plant response rating, Watergrass, Late: 0
[10]; 32 g ai/ha
  Ducksalad plant response rating: 100
[10]; 64 g ai/ha
  Ducksalad plant response rating: 100
[10]; 125 g ai/ha
  Ducksalad plant response rating: 100
[10]; 250 g ai/ha
  Ducksalad plant response rating: 100
[10]
  Plant response rating, Ducksalad: 0
[11]; 32 g ai/ha
  Watergrass, Early plant response rating: 0
[11]; 64 g ai/ha
  Watergrass, Early plant response rating: 0
[11]; 125 g ai/ha
  Watergrass, Early plant response rating: 0
[11]; 250 g ai/ha
  Watergrass, Early plant response rating: 0
[11]
  Plant response rating, Watergrass, Early: 0
[12]; [18]
  Plant response rating, Pigweed: 5
[12]; [19]
  Plant response rating, Pigweed: 15
[12]; [20]
  Plant response rating, Pigweed: 0
[12]; [21]
  Plant response rating, Pigweed: 0
[13]; [18]
  Plant response rating, Velvetleaf: 35
[13]; [19]
  Plant response rating, Velvetleaf: 45
[13]; [20]
  Plant response rating, Velvetleaf: 0
[13]; [21]
  Plant response rating, Velvetleaf: 5
[14]; [18]
  Plant response rating, Barnyardgrass: 0
[14]; [19]
  Plant response rating, Barnyardgrass: 20
[14]; [20]
  Plant response rating, Barnyardgrass: 0
[14]; [21]
  Plant response rating, Barnyardgrass: 0
[15]; [18]
  Plant response rating, Crabgrass: 0
[15]; [19]
  Plant response rating, Crabgrass: 10
[15]; [20]
  Plant response rating, Crabgrass: 0
[15]; [21]
  Plant response rating, Crabgrass: 15
[16]; [18]
  Plant response rating, Morningglory: 0
[16]; [19]
  Plant response rating, Morningglory: 0
[16]; [20]
  Plant response rating, Morningglory: 0
[16]; [21]
  Plant response rating, Morningglory: 0
[17]; [18]
  Plant response rating, Foxtail, Giant: 0
[17]; [19]
  Plant response rating, Foxtail, Giant: 15
[17]; [20]
  Plant response rating, Foxtail, Giant: 0
[17]; [21]
  Plant response rating, Foxtail, Giant: 0
